Results: US6605424B1, “Method of detecting inhibitors of agonist-specific desensitization” (Duke University, priority 1989, dated 2003)
“And” between values parts separate entries of the source, which are not always exact repeats. Identical values can stand only once.

Columns and labels:
βAR kinase = target: T1, βAR kinase (Bos taurus, UniProt P21146); assay: Phosphorylation of rhodopsin (urea-treated rod outer segments) by βAR kinase; type: biochemical, bovine
T1 construct: βAR kinase was purified from bovine cerebral cortex; from tissue; host or cells: bovine cerebral cortex
T1 sequence (P21146 1-689): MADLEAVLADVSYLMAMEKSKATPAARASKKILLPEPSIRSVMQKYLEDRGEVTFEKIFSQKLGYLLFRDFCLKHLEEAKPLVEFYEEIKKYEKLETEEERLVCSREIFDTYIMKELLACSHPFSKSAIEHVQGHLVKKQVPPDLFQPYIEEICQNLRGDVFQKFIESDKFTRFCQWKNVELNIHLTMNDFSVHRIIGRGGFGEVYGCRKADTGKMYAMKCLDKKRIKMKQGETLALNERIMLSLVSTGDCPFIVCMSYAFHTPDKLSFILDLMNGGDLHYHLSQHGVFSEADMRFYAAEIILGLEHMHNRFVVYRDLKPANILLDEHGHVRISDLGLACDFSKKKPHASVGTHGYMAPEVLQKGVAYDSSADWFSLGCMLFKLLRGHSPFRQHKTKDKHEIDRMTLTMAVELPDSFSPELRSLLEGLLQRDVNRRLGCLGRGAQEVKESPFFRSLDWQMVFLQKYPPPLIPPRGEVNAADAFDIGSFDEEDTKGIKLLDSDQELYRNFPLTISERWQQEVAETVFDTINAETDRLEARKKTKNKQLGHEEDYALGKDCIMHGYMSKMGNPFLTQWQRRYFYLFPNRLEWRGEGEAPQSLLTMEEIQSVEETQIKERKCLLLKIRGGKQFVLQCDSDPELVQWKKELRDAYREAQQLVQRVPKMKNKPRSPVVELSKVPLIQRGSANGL
Procedure: βAR kinase was purified from bovine cerebral cortex by modification of procedure of Benovic et al (J. Biol. Chem. (1987) 262:9026-9032). Briefly, 250 g of bovine cerebral cortex were homogenized with a Brinkmann tissue disrupter and centrifuged (40,000×g, 30 min). The supernatant was then precipitated with 13-26% ammonium sulfate. This material was initially chromatographed on a Ultrogel AcA34 column equilibrated with 5 mM Tris-HCl, pH 7.5, 2 mM EDTA, 10 μg/ml leupeptin, 5 μg/ml pepstatin, 10 μg/ml benzamidine, 0.2 mM phenylmethylsulfonyl fluoride (buffer A). The peak activity was diluted with an equal volume of buffer A containing 0.04% Triton X-100 before being applied to a DEAE-Sephacel column. Elution was accomplished with a 0-80 mM NaCl gradient in buffer A containing 0.02% Triton X-100. The peak activity was then applied to a CM-Fractogel column and eluted with a 0-100 mM NaCl gradient in buffer A containing 0.02% Triton X-100. The purified kinase is stable at 4° C. for several months. For these studies the βAR kinase preparations were >75% pure.
Rod outer segments were prepared from bovine retinas by stepwise sucrose gradient centrifugation (Wilden et al Biochemistry (1982) 21:3014-3022). Rhodopsin kinase-free rod outer segments were prepared by treatment with 5 M urea (Shichi et al J. Biol. Chem. (1978) 253:7040-7046) and consisted of ˜95% rhodopsin, as assessed by Coomassie Blue staining of sodium dodecyl sulfate-polyacrylamide gels.
Urea-treated rod outer segments were phosphorylated with βAR kinase as follows. Urea-treated rod outer segments (˜4 μg of rhodopsin) were incubated with βAR kinase (˜0.1 μg) for 10-15 min at 30° C. in the presence of 40 mM Tris-HCl, pH 7.4, 10 mM NaCl, 5 mM MgCl2, 1.5 mM EDTA, and 65 μM ATP (˜1 cpm/fmol) (total reaction volume was 40 μl). Reactions were stopped by the addition of 40 μl of sodium dodecyl sulfate sample buffer (see below) followed by sodium dodecyl sulfate-polyacrylamide gel electrophoresis. After autoradiography, the phosphorylated rhodopsin bands were excised and counted.
Sodium dodecyl sulfate-polyacrylamide gel electrophoresis was performed by the method of Laemmli (Nature (1970) 227:680-685) using 10% homogeneous polyacrylamide slab gels. Sample buffer contained 8% sodium dodecyl sulfate, 10% glycerol, 5% 3-mercaptoethanol, 25 mM Tris-HCl, pH 6.5, and 0.003% bromphenol blue. After electrophoresis, gels were dried with a Bio-Rad gel dryer prior to autoradiography.

[1] = tested on: β2ARs in permeabilized A431 cells; assay: Desensitization of β2ARs in permeabilized A431 cells; type: cell-based, human

For heparin, the “Hill coefficient of inhibition” value (βAR kinase; data of FIG. 1) was roughly 2, the IC50 (βAR kinase; read-out: IC50 (concentration of compound which gave 50% inhibition of βAR kinase), rhodopsin as substrate) was 150 nM and the “IC50 (concentration of compound which gave 50% inhibition of βAR kinase)” value (βAR kinase; rhodopsin as substrate, mean ± S.E.) was 0.77 ± 0.10 µg/mL. For the same substance, the “Inhibition of Desensitization, %” value ([1]; 0.1 μM) was 102 ± 16%, the “effect on time course of desensitization” value ([1]; 100 nM heparin, 1 μM (−)-isoproterenol) was “almost completely abolished” and the IC50 ([1]; 1 μM (−)-isoproterenol, 10 min, 37° C., read-out: IC50, inhibition of desensitization) was 21 nM and 20 nM. The “extent of inhibition of desensitization” value ([1]; at concentrations above 100 nM) was “virtually complete”.
